Experimental data published in patent publication US20130338106A1, “COMPOUNDS INHIBITING LEUCINE-RICH REPEAT KINASE ENZYME ACTIVITY” (priority 2011, published 2013).
Like-named read-outs stand apart in the source and are kept apart here.

How the values were obtained:
Format in all cases: biochemical
AURC = biological target: T1, AURC (Homo sapiens, UniProt Q9UQB9); assay: ProfilerPro Kinase Selectivity, AURC; conditions: tested at 10 uM, read-out: percent inhibition of the kinase activity
T1 construct: purchased Caliper LifeSciences
T1 sequence (Q9UQB9 whole entry): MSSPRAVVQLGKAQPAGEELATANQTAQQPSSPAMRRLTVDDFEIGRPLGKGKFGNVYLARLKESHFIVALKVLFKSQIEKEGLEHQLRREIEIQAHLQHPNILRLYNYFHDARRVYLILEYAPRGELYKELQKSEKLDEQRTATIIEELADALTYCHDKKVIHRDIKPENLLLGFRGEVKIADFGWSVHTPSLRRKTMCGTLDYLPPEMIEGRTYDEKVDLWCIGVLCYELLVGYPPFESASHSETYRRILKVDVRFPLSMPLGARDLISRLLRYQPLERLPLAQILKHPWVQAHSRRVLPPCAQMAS
Method: (§1) Kinome selectivity profiling was performed using two example compounds according to the manufacturer's instructions using Caliper LifeSciences' ProfilerPro Kinase Selectivity Assay Kits. Compounds prepared in Examples 1 and 7 were tested at 10 uM and data were recorded using the Caliper LabChip® EZ Reader™. Each compounds' percent inhibition of the kinase activity measured in this manner is reported in the following lists.

BRSK1 = biological target: T2, BRSK1 (Homo sapiens, UniProt Q8TDC3); assay: ProfilerPro Kinase Selectivity, BRSK1; conditions: tested at 10 uM, read-out: percent inhibition of the kinase activity
T2 construct: purchased Caliper LifeSciences
T2 sequence (Q8TDC3 whole entry, species assumed): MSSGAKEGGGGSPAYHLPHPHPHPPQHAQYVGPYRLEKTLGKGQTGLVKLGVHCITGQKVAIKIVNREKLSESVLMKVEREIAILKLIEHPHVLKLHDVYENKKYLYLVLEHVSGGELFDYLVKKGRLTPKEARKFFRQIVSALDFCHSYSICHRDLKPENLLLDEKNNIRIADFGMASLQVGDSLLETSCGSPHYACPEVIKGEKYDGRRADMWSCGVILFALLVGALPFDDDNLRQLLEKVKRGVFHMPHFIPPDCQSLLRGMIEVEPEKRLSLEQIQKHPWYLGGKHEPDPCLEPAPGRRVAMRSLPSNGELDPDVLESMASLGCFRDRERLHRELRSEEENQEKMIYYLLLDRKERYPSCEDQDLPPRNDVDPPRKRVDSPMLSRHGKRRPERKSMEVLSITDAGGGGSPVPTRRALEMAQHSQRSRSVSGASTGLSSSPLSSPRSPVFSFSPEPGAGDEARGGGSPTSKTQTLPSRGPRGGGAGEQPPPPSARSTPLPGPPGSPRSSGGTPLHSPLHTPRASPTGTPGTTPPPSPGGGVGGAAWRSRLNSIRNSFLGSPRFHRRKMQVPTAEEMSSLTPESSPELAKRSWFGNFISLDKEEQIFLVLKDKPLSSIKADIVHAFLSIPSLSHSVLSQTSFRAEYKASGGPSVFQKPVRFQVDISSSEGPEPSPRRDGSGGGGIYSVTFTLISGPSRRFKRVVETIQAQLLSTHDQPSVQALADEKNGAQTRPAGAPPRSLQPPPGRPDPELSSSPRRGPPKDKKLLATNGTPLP
Method: as §1

EPHB1 = biological target: T3, EPHB1 (Homo sapiens, UniProt P54762); assay: ProfilerPro Kinase Selectivity, EPHB1; conditions: tested at 10 uM, read-out: percent inhibition of the kinase activity
T3 construct: purchased Caliper LifeSciences
Method: as §1

EPHB4 = biological target: T4, EPHB4 (Homo sapiens, UniProt P54760); assay: ProfilerPro Kinase Selectivity, EPHB4; conditions: tested at 10 uM, read-out: percent inhibition of the kinase activity
T4 construct: purchased Caliper LifeSciences
T4 sequence (P54760 16-987, species assumed): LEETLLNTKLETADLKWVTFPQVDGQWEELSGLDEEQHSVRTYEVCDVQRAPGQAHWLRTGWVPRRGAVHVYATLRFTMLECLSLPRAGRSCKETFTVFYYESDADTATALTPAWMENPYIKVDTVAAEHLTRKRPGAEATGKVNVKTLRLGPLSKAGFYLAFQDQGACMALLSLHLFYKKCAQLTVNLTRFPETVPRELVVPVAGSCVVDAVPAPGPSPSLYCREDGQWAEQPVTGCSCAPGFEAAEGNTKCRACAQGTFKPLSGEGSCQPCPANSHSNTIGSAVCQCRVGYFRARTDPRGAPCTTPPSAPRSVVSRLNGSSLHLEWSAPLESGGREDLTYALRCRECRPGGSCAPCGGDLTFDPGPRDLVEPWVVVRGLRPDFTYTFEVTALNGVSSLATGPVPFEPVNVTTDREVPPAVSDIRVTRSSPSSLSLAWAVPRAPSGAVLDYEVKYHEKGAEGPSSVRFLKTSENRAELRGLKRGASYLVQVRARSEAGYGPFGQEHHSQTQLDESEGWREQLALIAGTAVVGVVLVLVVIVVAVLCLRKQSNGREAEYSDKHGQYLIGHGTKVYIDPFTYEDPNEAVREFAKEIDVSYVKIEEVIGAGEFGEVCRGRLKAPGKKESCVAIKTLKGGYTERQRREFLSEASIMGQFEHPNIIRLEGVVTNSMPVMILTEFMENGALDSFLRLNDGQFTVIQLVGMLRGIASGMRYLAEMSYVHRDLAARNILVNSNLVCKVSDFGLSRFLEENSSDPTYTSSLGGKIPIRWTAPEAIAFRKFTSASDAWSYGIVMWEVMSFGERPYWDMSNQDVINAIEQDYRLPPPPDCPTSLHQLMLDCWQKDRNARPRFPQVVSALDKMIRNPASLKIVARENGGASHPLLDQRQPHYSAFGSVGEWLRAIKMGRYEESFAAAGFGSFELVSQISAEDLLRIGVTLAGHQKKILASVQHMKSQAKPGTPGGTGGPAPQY
Method: as §1

HIPK1 = biological target: T5, HIPK1 (Homo sapiens, UniProt Q86Z02); assay: ProfilerPro Kinase Selectivity, HIPK1; conditions: tested at 10 uM, read-out: percent inhibition of the kinase activity
T5 construct: purchased Caliper LifeSciences
T5 sequence (Q86Z02 whole entry, species assumed): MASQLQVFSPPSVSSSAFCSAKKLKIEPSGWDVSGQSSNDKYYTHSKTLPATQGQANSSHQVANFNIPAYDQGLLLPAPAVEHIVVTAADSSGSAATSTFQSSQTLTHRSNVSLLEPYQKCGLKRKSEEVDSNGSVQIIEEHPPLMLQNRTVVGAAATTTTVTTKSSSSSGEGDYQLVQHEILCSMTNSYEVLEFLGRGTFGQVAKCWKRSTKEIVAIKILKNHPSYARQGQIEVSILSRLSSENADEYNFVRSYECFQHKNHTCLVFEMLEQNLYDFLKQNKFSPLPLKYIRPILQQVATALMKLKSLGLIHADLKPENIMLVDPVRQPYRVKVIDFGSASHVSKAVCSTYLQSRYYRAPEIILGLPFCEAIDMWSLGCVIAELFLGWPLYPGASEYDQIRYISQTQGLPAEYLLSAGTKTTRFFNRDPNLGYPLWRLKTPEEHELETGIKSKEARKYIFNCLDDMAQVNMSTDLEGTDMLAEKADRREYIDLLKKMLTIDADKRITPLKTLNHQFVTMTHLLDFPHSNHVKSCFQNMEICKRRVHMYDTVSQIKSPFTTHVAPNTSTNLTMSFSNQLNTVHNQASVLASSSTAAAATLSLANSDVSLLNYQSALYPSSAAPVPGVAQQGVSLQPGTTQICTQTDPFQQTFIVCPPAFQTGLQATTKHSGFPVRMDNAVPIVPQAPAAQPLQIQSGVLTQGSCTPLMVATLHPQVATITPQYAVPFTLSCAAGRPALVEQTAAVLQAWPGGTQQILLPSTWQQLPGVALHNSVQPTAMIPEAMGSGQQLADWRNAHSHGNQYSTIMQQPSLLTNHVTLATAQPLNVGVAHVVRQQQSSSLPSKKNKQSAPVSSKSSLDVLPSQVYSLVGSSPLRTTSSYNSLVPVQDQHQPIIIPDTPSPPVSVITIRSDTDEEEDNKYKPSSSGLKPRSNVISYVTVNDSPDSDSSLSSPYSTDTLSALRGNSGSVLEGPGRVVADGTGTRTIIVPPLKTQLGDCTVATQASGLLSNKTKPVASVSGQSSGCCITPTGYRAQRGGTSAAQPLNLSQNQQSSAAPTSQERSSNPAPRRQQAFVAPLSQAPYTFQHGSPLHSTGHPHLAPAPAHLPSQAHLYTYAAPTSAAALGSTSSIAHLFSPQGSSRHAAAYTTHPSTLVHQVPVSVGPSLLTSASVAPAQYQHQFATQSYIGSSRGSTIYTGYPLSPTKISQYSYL
Method: as §1

LRRK2 = LRRK2 (Homo sapiens, UniProt Q5S007); assay: ProfilerPro Kinase Selectivity, LRRK2; conditions: read-out: percent inhibition of the kinase activity
Method: as §1, with “Reader™.” for “Reader™. Each compounds' percent inhibition of the kinase activity measured in this manner is reported in the following lists.”

LYNB = biological target: T6, LYNB (Homo sapiens, UniProt P07948); assay: ProfilerPro Kinase Selectivity, LYNB; conditions: tested at 10 uM, read-out: percent inhibition of the kinase activity
T6 construct: purchased Caliper LifeSciences
Method: as §1

P70S6K = biological target: T7, P70S6K (Homo sapiens, UniProt P23443); assay: ProfilerPro Kinase Selectivity, P70S6K; conditions: tested at 10 uM, read-out: percent inhibition of the kinase activity
T7 construct: purchased Caliper LifeSciences
Method: as §1

SGK = biological target: T8, SGK (Homo sapiens, UniProt O00141); assay: ProfilerPro Kinase Selectivity, SGK; conditions: tested at 10 uM, read-out: percent inhibition of the kinase activity
T8 construct: purchased Caliper LifeSciences
T8 sequence (O00141 whole entry, species assumed): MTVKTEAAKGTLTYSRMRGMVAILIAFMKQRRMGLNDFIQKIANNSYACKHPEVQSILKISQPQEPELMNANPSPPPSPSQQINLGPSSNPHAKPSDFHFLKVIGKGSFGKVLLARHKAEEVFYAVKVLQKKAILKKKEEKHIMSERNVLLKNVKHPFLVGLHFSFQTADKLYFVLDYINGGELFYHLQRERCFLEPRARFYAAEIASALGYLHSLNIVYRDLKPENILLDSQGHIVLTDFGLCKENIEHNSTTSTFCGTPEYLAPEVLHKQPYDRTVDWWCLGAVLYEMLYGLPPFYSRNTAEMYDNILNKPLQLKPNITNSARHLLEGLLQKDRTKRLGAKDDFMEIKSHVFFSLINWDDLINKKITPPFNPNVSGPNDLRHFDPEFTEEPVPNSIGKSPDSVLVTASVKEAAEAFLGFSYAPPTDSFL
Method: as §1

SGK3 = biological target: T9, SGK3 (Homo sapiens, UniProt Q96BR1); assay: ProfilerPro Kinase Selectivity, SGK3; conditions: tested at 10 uM, read-out: percent inhibition of the kinase activity
T9 construct: purchased Caliper LifeSciences
T9 sequence (Q96BR1 whole entry, species assumed): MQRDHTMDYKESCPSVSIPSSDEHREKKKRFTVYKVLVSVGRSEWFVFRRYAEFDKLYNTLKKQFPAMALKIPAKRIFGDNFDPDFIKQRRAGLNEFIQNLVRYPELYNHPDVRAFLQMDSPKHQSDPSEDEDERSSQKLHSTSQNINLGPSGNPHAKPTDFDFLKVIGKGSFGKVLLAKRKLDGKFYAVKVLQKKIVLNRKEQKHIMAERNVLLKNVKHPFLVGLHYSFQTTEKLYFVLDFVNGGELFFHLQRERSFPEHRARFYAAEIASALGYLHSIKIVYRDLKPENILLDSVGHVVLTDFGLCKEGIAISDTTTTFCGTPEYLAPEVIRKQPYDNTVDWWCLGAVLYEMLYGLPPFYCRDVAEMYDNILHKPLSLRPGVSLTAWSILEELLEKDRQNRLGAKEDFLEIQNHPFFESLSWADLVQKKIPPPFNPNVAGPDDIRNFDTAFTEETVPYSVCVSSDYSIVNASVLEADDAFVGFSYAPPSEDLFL
Method: as §1

SYK = biological target: T10, SYK (Homo sapiens, UniProt P43405); assay: ProfilerPro Kinase Selectivity, SYK; conditions: tested at 10 uM, read-out: percent inhibition of the kinase activity
T10 construct: purchased Caliper LifeSciences
Method: as §1

TSSK1 = biological target: T11, TSSK1 (Homo sapiens, UniProt Q9BXA7); assay: ProfilerPro Kinase Selectivity, TSSK1; conditions: tested at 10 uM, read-out: percent inhibition of the kinase activity
T11 construct: purchased Caliper LifeSciences
T11 sequence (Q9BXA7 whole entry, species assumed): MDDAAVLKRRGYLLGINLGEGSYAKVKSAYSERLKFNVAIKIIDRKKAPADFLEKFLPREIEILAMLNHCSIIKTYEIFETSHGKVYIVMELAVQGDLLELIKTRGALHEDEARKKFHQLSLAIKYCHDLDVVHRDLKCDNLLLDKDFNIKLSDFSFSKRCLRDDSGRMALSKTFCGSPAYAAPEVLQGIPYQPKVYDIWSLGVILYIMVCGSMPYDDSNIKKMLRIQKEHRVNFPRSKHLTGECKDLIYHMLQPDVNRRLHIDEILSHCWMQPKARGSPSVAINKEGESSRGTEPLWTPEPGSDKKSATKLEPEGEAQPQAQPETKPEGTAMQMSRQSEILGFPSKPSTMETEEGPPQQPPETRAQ
Method: as §1

Compound | inhibition at 10 µM (AURC) | inhibition at 10 µM (BRSK1) | inhibition at 10 µM (EPHB1) | inhibition at 10 µM (EPHB4) | inhibition at 10 µM (HIPK1) | inhibition at 10 µM (LRRK2) | inhibition at 10 µM (LYNB) | inhibition at 10 µM (P70S6K) | inhibition at 10 µM (SGK) | inhibition at 10 µM (SGK3) | inhibition at 10 µM (SYK) | inhibition at 10 µM (TSSK1) | inhibition at 10 µM (LRRK2; LRRK2, tested at 10 uM)
CSc1sc(-c2cc[nH]n2)c2c1C(=O)CCC2 [Example 1, 3-(Methylsulfanyl)-1-(1H-pyrazol-3-yl)-6,7-dihydro-2-benzothiophen-4(5H)-one] | 27.9% | -0.2% | 3% | 0.6% | 15.9% | 93.9% | 8.2% | 5.7% | -5.1% | 4.6% | 49.9% | 24% | –
CC1(C)CC(=O)c2c(SC3CCCC3)sc(-c3cc[nH]n3)c2C1 [Example 7, 3-(Cyclopentylsulfanyl)-6,6-dimethyl-1-(1H-pyrazol-3-yl)-6,7-dihydro-2-benzothiophen-4(5H)-one] | 3.5% | 3.8% | 3.3% | 0.1% | -1% | – | -4.9% | -4.8% | -1.3% | 4.6% | 5.8% | 8.3% | 83.1%
